Measured values reported in ChEMBL document CHEMBL2074170, “Influence of different chemicals on MDR-1 P-glycoprotein expression and activity in the HK-2 proximal tubular cell line” (Toxicol Appl Pharmacol, 2002).

Assays:
[1] = biological target: T1, ATP-dependent translocase ABCB1 (Homo sapiens, UniProt P08183); assay: TP_TRANSPORTER: Western blot, HK-2 cells; format: functional, cell-based
[2] = biological target: T1, ATP-dependent translocase ABCB1; assay: TP_TRANSPORTER: RT-PCR in HK-2 cell; format: functional, cell-based

T1 sequence (P08183 whole entry): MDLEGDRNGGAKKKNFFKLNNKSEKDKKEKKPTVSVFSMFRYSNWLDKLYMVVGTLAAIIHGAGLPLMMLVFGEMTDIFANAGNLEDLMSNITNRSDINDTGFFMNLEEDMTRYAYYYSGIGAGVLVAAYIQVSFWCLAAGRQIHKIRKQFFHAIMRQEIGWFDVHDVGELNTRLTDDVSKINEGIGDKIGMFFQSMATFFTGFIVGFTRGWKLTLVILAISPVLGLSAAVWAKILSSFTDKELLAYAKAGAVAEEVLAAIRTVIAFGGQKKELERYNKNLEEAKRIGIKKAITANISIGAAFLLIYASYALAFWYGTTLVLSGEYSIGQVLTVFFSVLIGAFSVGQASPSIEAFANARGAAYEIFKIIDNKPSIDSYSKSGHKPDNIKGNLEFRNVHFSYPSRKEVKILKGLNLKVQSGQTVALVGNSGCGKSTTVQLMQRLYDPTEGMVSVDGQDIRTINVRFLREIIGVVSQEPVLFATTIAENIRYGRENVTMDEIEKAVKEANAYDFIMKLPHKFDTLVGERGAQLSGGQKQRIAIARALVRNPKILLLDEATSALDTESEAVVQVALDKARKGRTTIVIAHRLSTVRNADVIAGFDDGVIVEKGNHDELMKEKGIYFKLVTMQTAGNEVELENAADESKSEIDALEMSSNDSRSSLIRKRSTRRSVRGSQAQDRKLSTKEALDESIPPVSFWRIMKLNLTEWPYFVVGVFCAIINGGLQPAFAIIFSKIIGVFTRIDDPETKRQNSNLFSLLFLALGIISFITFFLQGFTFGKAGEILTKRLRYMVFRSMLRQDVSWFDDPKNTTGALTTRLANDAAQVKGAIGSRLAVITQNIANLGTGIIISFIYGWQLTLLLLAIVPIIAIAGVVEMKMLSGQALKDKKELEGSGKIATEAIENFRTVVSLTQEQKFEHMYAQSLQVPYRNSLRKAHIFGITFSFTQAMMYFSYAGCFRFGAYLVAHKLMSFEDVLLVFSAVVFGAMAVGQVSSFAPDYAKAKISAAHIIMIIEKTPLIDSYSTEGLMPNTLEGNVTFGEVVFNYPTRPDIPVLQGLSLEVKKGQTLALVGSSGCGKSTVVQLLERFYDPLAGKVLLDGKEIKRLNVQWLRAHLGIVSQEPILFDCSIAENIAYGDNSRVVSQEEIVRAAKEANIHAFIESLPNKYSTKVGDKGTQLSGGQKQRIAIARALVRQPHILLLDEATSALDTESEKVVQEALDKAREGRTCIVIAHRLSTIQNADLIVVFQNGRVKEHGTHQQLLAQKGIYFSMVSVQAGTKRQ

Compound | Activity [1] | Activity [2]
COc1ccc(CCN(C)CCCC(C#N)(c2ccc(OC)c(OC)c2)C(C)C)cc1OC (stereo unspecified) | is not an inducer [-] | is not an inducer [-]
CC(=O)Nc1ccc2c(c1)Cc1ccccc1-2 [2-ACETYLAMINOFLUORENE] | inducer [Decrease] | inducer [Decrease]
Cc1ccc2cc3c(ccc4ccccc43)c3c2c1CC3 [3-METHYLCHOLANTHRENE] | inducer [Decrease] | –
C[C@]12CCC(=O)C=C1CC[C@@H]1[C@@H]2[C@@H](O)C[C@]2(C=O)[C@@H](C(=O)CO)CC[C@@H]12 [ALDOSTERONE] | inducer [+] | –
CN/C(=N/CCSCc1nc[nH]c1C)NC#N [CIMETIDINE] | is not an inducer [-] | is not an inducer [-]
C[C@@H]1C[C@H]2[C@@H]3CCC4=CC(=O)C=C[C@]4(C)[C@@]3(F)[C@@H](O)C[C@]2(C)[C@@]1(O)C(=O)CO [DEXAMETHASONE] | inducer [+] | inducer [+]
CCCCCCCCCCCCCCCCOC[C@H](COP(=O)([O-])OCC[N+](C)(C)C)OC(C)=O [PLATELET ACTIVATING FACTOR] | inducer [+] | inducer [+]
CC(=O)[C@H]1CC[C@H]2[C@@H]3CCC4=CC(=O)CC[C@]4(C)[C@H]3CC[C@]12C [PROGESTERONE] | is not an inducer [-] | is not an inducer [-]
COc1cc(Cc2cnc(N)nc2N)cc(OC)c1OC [TRIMETHOPRIM] | is not an inducer [-] | is not an inducer [-]
